According to patent US12139461B1, “Piperidine compounds as PDE5 inhibitors” (KING SAUD UNIVERSITY, priority 2024, dated 2024):
Where “and” joins values, the source holds several entries; their conditions need not be identical. Equal values may be shown once.

Columns and labels:
[1] = target: Phosphodiesterase type 5 (PDE5) (Homo sapiens (Human), UniProt O76074); experiment: In vitro phosphodiesterase type 5 (PDE5) inhibition assay; format: biochemical; conditions: purified PDE5, IMAP FP assay
[2] = system: male rats; experiment: Copulatory behavior testing; format: in vivo, rat; conditions: 5 mg/kg oral; for mean intromission interval (MII): MII=EL/IF
Experimental: Sexually mature Wistar albino male and female rats weighing 150-180 g (10-14 weeks old) were used in our study. Males were trained for sexual behavior with estrus females, that is, two hours a day for one week, before the investigations. Females were brought into the estrous phase artificially by sequential injection of estradiol benzoate (Sigma) (25 μg/animal) and progesterone (Sigma) (250 μg/animal) subcutaneously, 48 and 4 hours before pairing, respectively. Only those sexually active animals were used subsequently in the study. Sexually active rats were isolated and housed in separate cages at room temperature (24±2° C.) on a reversed day/night cycle with a relative humidity of 50-55% during the experimental period. All sexual studies were performed in a calm laboratory condition under subdued light. For the toxicity study, adult Wistar albino male rats were used separately. Rats were obtained from the Experimental Animal Care Center, College of Pharmacy, King Saud University. Animals were fed with a standard pellet diet and provided water ad libitum. All experiments were performed per the protocols and recommendations of the NIH Guide for the Care and Use of Laboratory Animals and the legal requirements of King Saud University for investigations on humans and animals.
Based on a preliminary study to select the appropriate dose for the promising synthesized compounds, the compounds were administered separately to sexually experienced male rats by oral gavage at 5 mg/kg in a 0.5% sodium carboxymethyl cellulose (CMC) vehicle. […] All solutions were freshly prepared at a concentration that allowed the administration of 1 ml/kg.
After drug treatment, rats were housed separately in transparent cages for acclimation. Thirty minutes after drug treatment, a sexually receptive female rat with estrous phase was introduced in each cage for 30 min and the following parameters of the copulatory behavior were recorded: namely mount latency (ML; time from introduction of the female until the first mount with or without penile insertion, it measures the degree of arousal or sexual interest or libido of the male), mount frequency (MF; the number of mounts until ejaculation, it is a measure of the degree of the male's sexual interest or libido), intromission latency (IL; time from introduction of the female until the first intromission, it measures the degree of sexual excitement and erection), intromission frequency (IF; number of vaginal penetrations until ejaculation, it measures the degree of erection), ejaculation latency (EL; time from the first intromission until ejaculation, it determines the excellent organization of copulation in rats) and post-ejaculatory interval (PEI; time interval between an ejaculation and the following first mount, it measures the refractory period that comes after ejaculation). Latency values represent the number of seconds that elapses from the introduction of the female into the copulatory arena until the male executes the first mount, intromission or ejaculation. Frequency values represent the number of ejaculations, mounts or intromission recorded during the copulatory test.
Depending on these parameters, the following can be calculated: Copulatory efficiency (CE)=(IF/MF)×100 and mean intromission interval (MII)=EL/IF as previously described (Aydogan F. et al., J Ethnopharmacol 257 (2020) 112868; Besong E B. et al., Biochem Res Int 2018 (2018) 2869727, the contents of each of which are hereby incorporated by reference in their entirety). Experiments were repeated blindly three times using new fresh (unused) animals in each experiment.

[3] = system: sexually experienced male rats; experiment: Penile erection index (noncontact erection test); format: in vivo, rat; conditions: Rattus norvegicus, oral, linear regression of proportion of responding rats, read-out: effective dose ED50 (dose required to give 50% responding rats)
Experimental: The penile erection index is an established means of determining the erection promoting properties of a substance. Determination of penile erection in a noncontact position was calculated as reported previously (Haripriya V M. et al., Andrologia 51 (2019) e13180; Sharma V. et al., J Ethnopharmacol 143 (2012) 201-206, the contents of each of which are hereby incorporated by reference in their entirety). The sexually experienced male rats of all groups were given the treatment 30 minutes before experimentation. The number of animals for each dose was ten rats in each experiment. […] The results shown are the average of three separate experiments. Control animals were given 0.5% CMC as a vehicle.
The rats of each group were placed in the observation cages (five at a time) divided into half by two sheets of metal mesh, preventing contact but allowing auditory, visual and olfactory stimuli. After a 5-min adaptation period, the test was started by placing an estrus female on the other side of the cage. Penile erection was recorded when the rats bent down to lick their erect penis. Homosexual mounting was also counted when a male rat mounted another male rat performing pelvic thrusts with or without a penile erection. […] The effective dose ED50 (the dose required to give 50% responding rats) for examined compounds was calculated using linear regression analysis by GraphPad software with the proportion of responding rats as the input data and expressed as μmol/kg.

## COc1ccc(S(=O)(=O)N2CCC(c3ccccc3)CC2)c(OC)c1 [Compound C1, 1-((2,4-Dimethoxyphenyl)sulfonyl)-4-phenylpiperidine]
other
  melting point: 191 to 193 °C
[1]
  IC50: 106 ± 2.07 nM

## COc1ccc(S(=O)(=O)N2CCC(c3ccccc3)CC2)cc1OC [Compound C2, 1-((3,4-Dimethoxyphenyl)sulfonyl)-4-phenylpiperidine]
other
  melting point: 207 to 209 °C
[1]
  IC50: 185 ± 3.61 nM

## COc1ccccc1S(=O)(=O)N1CCC(c2ccccc2)CC1 [Compound C3, 1-((2-Methoxyphenyl)sulfonyl)-4-phenylpiperidine]
other
  melting point: 173 to 175 °C
[1]
  IC50: 85.2 ± 1.66 nM

## O=S(=O)(c1ccc(Cl)cc1)N1CCC(c2ccccc2)CC1 [Compound C5]
[1]
  IC50: 675 ± 13.2 nM

## Cc1cc(C)c(S(=O)(=O)N2CCC(c3ccccc3)CC2)c(C)c1 [Compound C6, 1-(Mesitylsulfonyl)-4-phenylpiperidine]
other
  melting point: 157 to 159 °C
[1]
  IC50: 296 ± 5.77 nM

## CC(C)c1cc(C(C)C)c(S(=O)(=O)N2CCC(c3ccccc3)CC2)c(C(C)C)c1 [Compound C7, 1-((2,4,6-tri-isiopropylphenyl)sulfonyl)-4-phenylpiperidine]
[1]
  IC50: 520 ± 10.1 nM

## O=S(=O)(c1ccccc1)N1CCC(c2ccccc2)CC1 [Compound C8]
[1]
  IC50: 54.2 ± 1.06 nM

## Cc1ccc(S(=O)(=O)N2CCC(c3ccccc3)CC2)cc1 [Compound C10]
[1]
  IC50: 133 ± 2.59 nM

## CC(C(=O)Nc1ccc(S(N)(=O)=O)cc1)N1CCC(Cc2ccccc2)CC1 (stereo not shown) [Compound C12, 2-(4-Benzylpiperidin-1-yl)-N-(4-sulfamoylphenyl)-2-methylacetamide]
[1]
  IC50: 874 ± 17.1 nM

## NS(=O)(=O)c1ccc(NC(=O)CN2CCC(Cc3ccccc3)CC2)cc1 [Compound C13, 2-(4-Benzylpiperidin-1-yl)-N-(4-sulfamoylphenyl)acetamide]
[1]
  IC50: 221 ± 4.32 nM

## COc1ccc(NC(=O)CN2CCC(Cc3ccccc3)CC2)cc1 [Compound C15, 2-(4-Benzylpiperidin-1-yl)-N-(4-methoxyphenyl)acetamide]
other
  melting point: 61 to 63 °C
[1]
  IC50: 184 ± 3.6 nM

## O=C(CN1CCC(Cc2ccccc2)CC1)NCc1ccc(F)cc1 [Compound C16, 2-(4-Benzylpiperidin-1-yl)-N-(4-fluorobenzyl)acetamide]
other
  melting point: 72 to 74 °C
[1]
  IC50: 484 ± 9.44 nM

## CC(C(=O)Nc1ccc(F)cc1)N1CCC(Cc2ccccc2)CC1 (stereo not shown) [Compound C17]
[1]
  IC50: 279 ± 5.43 nM

## O=S(=O)(c1ccccc1)N1CCC(Cc2ccccc2)CC1 [Compound C18]
[1]
  IC50: 112 ± 2.19 nM

## O=S(=O)(c1ccc(Cl)c(Cl)c1)N1CCC(Cc2ccccc2)CC1 [Compound C19, 4-Benzyl-1-((3,4-dichlorophenyl)sulfonyl)piperidine]
other
  melting point: 166 to 168 °C
[1]
  IC50: 102 ± 1.99 nM

## COc1ccc(S(=O)(=O)N2CCC(Cc3ccccc3)CC2)cc1OC [Compound C20]
[2]
  ML, IL, IF, MF and EL compared to untreated controls: not significantly different
  ejaculation latency (EL): prolonged
  intromission frequency (IF): 7.6
  intromission latency (IL): 229.1 s
  mount frequency (MF): 16.0
  mount latency (ML): 95.5 s
  post-ejaculatory interval (PEI): 401.8 s
  mean intromission interval (MII): did not alter
[2]; CE=(IF/MF)x100
  copulatory efficiency (CE): did not alter
[2]; CE=(IF/MF)x100, listed as C 20
  copulatory efficiency (CE): 48.5%
[2]; listed as C 20
  mean intromission interval (MII): 44.7
  ejaculation latency (EL): 325.1 s
[1]
  IC50: 63.3 nM

## COc1ccccc1S(=O)(=O)N1CCC(Cc2ccccc2)CC1 [Compound C23, 4-Benzyl-1-((2-methoxyphenyl)sulfonyl)piperidine]
other
  melting point: 95 to 97 °C
[1]
  IC50: 207 ± 4.03 nM

## COc1ccc(S(=O)(=O)N2CCC(Cc3ccccc3)CC2)c(OC)c1 [Compound C24, 1-((2,4-Dimethoxyphenyl)sulfonyl)-4-Benzylpiperidine]
[2]
  efficacy in improving copulatory behavior: more pronounced
  ejaculation latency (EL): 377.6 s
  intromission frequency (IF): 9.3
  intromission latency (IL): 193.8 s
  mount frequency (MF): 17.3
  mount latency (ML): 85.0 s
  post-ejaculatory interval (PEI): 370.0 s
  mean intromission interval (MII): 41.2
[2]; CE=(IF/MF)x100
  copulatory efficiency (CE): 54.0%
[1]
  IC50: 56.3 nM and 56.4 nM

## Cc1cc(C)c(S(=O)(=O)N2CCC(Cc3ccccc3)CC2)c(C)c1 [Compound C26, 4-Benzyl-1-(mesitylsulfonyl)piperidine]
other
  melting point: 70 to 72 °C
[1]
  IC50: 107 ± 2.09 nM

## CC(C)c1cc(C(C)C)c(S(=O)(=O)N2CCC(Cc3ccccc3)CC2)c(C(C)C)c1 [Compound C27, 1-((2,4,6-Tri-isopropylphenyl)sulfonyl)-4-Benzylpiperidine]
[1]
  IC50: 143 ± 2.78 nM

## Cc1ccc(S(=O)(=O)N2CCC(Cc3ccccc3)CC2)cc1 [Compound C28]
[2]
  efficacy in improving copulatory behavior: more pronounced
  ejaculation latency (EL): 332.8 s
  intromission frequency (IF): 9.1
  intromission latency (IL): 195.5 s
  mount frequency (MF): 17.5
  mount latency (ML): 94.6 s
  post-ejaculatory interval (PEI): 393.3 s
  mean intromission interval (MII): 36.6
[2]; CE=(IF/MF)x100
  copulatory efficiency (CE): 52.3%
[1]
  IC50: 56.5 nM

## O=S(=O)(c1ccc(Cl)cc1)N1CCC(Cc2ccccc2)CC1 [Compound C29]
[1]
  IC50: 250 ± 4.88 nM

## O=C(CN1CCC(Cc2ccccc2)CC1)Nc1ccccc1 [Compound C30]
[2]
  ML, IL, IF, MF and EL compared to untreated controls: not significantly different
  ejaculation latency (EL): 324.6 s
  intromission frequency (IF): 6.8
  intromission latency (IL): Weak but significant reductions
  mount frequency (MF): 14.8
  mount latency (ML): 95.5 s
  post-ejaculatory interval (PEI): 411.8 s
  mean intromission interval (MII): did not alter
[2]; CE=(IF/MF)x100
  copulatory efficiency (CE): did not alter
[2]; CE=(IF/MF)x100, listed as C 30
  copulatory efficiency (CE): 46.8%
[2]; listed as C 30
  mean intromission interval (MII): 49.2
  intromission latency (IL): 215.3 s
[1]
  IC50: 59 nM

## O=C(CN1CCC(Cc2ccccc2)CC1)NCc1ccccc1 [Compound C31]
[1]
  IC50: 74.9 ± 1.46 nM

## O=C(CN1CCC(Cc2ccccc2)CC1)Nc1ccc(F)cc1 [Compound C32]
[1]
  IC50: 203 ± 3.95 nM

## COc1cc(CNC(=O)CN2CCC(Cc3ccccc3)CC2)cc(OC)c1OC [Compound C34, 2-(4-Benzylpiperidin-1-yl)-N-(3,4,5-trimethoxybenzyl)acetamide]
[1]
  IC50: 60.5 ± 1.18 nM

## CCCc1nn(C)c2c(=O)[nH]c(-c3cc(S(=O)(=O)N4CCN(C)CC4)ccc3OCC)nc12 [sildenafil, reference compound]
[3]
  ED50: 8.52 µmol/kg
[2]
  ejaculation latency (EL): 426.6 s
  intromission frequency (IF): 17.8
  intromission latency (IL): 135.1 s
  mount frequency (MF): 26.6
  mount latency (ML): 68.5 s
  post-ejaculatory interval (PEI): 294.5 s
  mean intromission interval (MII): 24.3
